Values quoted from earlier work as cited in patent publication US20060182816A1, “Hypobromous acid system” (priority 2005, published 2006).
Where two headings read alike, the source gives them in different places.

Experiments:
[1] = not given; remark: listed apart in the source

For `OCl` [HOCl, hypochlorous acid], the pKa is listed as “about 7.53”.

In the case of `OBr` [Hypobromite ion], the “% bromine as OBr−” value ([1]; pH 6.0) is given as 0.0%, the “% bromine as OBr−” value ([1]; pH 6.5) is given as 0.6% and the “% bromine as OBr−” value ([1]; pH 7.0) is given as 2%. For the same compound, the “% bromine as OBr−” value ([1]; pH 7.5) was 6%, the “% bromine as OBr−” value ([1]; pH 8.0) was 17% and the “% bromine as OBr−” value ([1]; pH 8.5) was 43%.

For `OBr` [Hypobromous acid], the “% bromine as HOBr” value ([1]; pH 6.0) is given as 100%, the “% bromine as HOBr” value ([1]; pH 6.5) is given as 99.4% and the “% bromine as HOBr” value ([1]; pH 7.0) is given as 98%. For the same compound, the “% bromine as HOBr” value ([1]; pH 7.5) was 94%, the “% bromine as HOBr” value ([1]; pH 8.0) was 83% and the “% bromine as HOBr” value ([1]; pH 8.5) was 57%.
